According to paper PMC10391911, “Differential effects of two phosphodiesterase 4 inhibitors against lipopolysaccharide-induced neuroinflammation in mice” (BMC Neuroscience, 2023):
Where two headings read alike, the source gives them in different places.

Assays:
[1] = test system: NO production in LPS-induced BV-2 cells; experiment: NO production in LPS-induced BV-2 cells (Griess test); format: cell-based, murine; conditions: 1 h pretreatment, LPS 1 µg/mL 24 h; for Effect on NO levels: up to 10 µM
Description: (§1) BV-2 cells were seeded at a density of 5 × 10^5 cells/mL in 96-well plates. […] Finally, 1 µg/mL LPS was added to the cell culture medium for 24 h to induce inflammation.

[2] = test system: TNF-α production in LPS-induced BV-2 cells; experiment: TNF-α production in LPS-induced BV-2 cells (ELISA); format: cell-based, murine; conditions: for Effect on TNF-α levels: up to 10 µM; for IC50: Mus musculus, BV-2, read-out: IC50 against TNF-α
Description: as §1

[3] = test system: NF-κB signaling pathway in LPS-exposed BV-2 cells; experiment: Western blotting of p-NF-κB and NF-κB in LPS-exposed BV-2 cells; format: cell-based, murine; conditions: 1 and 10 µM, LPS 1 µg/mL 4 h
Description: Then the cells were incubated with or without LPS (1 µg/mL) for 4 h. Cells were harvested using trypsin and washed twice in cold Dulbecco’s phosphate-buffered saline and lysed with RIPA lysis buffer (Elpis, Daejeon, Korea) containing protease and phosphatase inhibitor mini tablets (Thermo Fisher, Waltham, MA, USA). Protein lysate concentrations were determined using the Pierce BCA Protein Assay kit (Thermo Fisher). Protein samples (5 µg) were separated via 5–20% sodium dodecyl sulfate polyacrylamide gel electrophoresis and then transferred to polyvinylidene fluoride membranes (ATTO, Tokyo, Japan). After transfer, membranes were blocked using Tris-buffered saline containing 0.5% Tween 20 and 5% bovine serum albumin at room temperature for 1 h. The membranes were incubated overnight at 4℃ with primary antibodies at a dilution ratio of 1:1000. […] Subsequently, blots were detected using horseradish peroxidase-conjugated secondary antibodies (1:10,000 dilution) and the ECL substrate (Millipore Corporation, Billerica, MA, USA) at room temperature for 1 h. Protein expression levels were measured using WSE-6100 LuminoGraph (ATTO). The bands were analyzed using the ImageJ software (NIH, Bethesda, MD, USA).

[4] = Bidirectional MDR1-MDCK monolayer permeability; format: in vitro ADME, canine; conditions: dog, MDCK-MDR1; for Papp at 3 µM: both directions, read-out: Apparent permeability coefficients; for Papp A→B at 3 µM / Papp A→B at 10 µM / Papp A→B at 30 µM: read-out: Papp Apical → Basolateral; for Papp B→A at 3 µM / Papp B→A at 10 µM / Papp B→A at 30 µM: read-out: Papp Basolateral → Apical; for Papp A→B: read-out: Papp in the apical-to-basolateral direction
Description: (§2) MDR1-MDCK cells were seeded at a density of 2 × 10^5 cells/well on the apical side of 24-transwell plates with a pore size of 0.4 μm (Corning Costar, Cambridge, MA, USA). Each basolateral chamber was filled with 0.6 mL medium, and each apical side with 0.2 mL medium containing cells. The plates seeded with cells were incubated for 3 days. The culture medium was replaced on both the apical and basolateral sides 2 days after seeding. Before the experiment, the transepithelial electrical resistance was measured using an epithelial voltohmmeter (Millicell ERS-2; Millipore), where 300 ohms or greater was considered to indicate the formation of a cell monolayer with tight junctions. The cells were rinsed twice with pre-warmed Hank’s balanced salt solution (HBSS) containing 10 mM of HEPES and were incubated in a CO2 incubator for 30 min. […] After equilibration, the solutions containing the test or reference compounds were added to either the apical side (0.2 mL) or basolateral side (0.6 mL) of the wells, and the plates were incubated in a shaking incubator (37℃, 200 rpm). Samples were collected every 30 min. To test for apical-to-basolateral flow, 110 µL sample was removed from each basolateral chamber; to test for basolateral-to-apical flow, 110 µL sample was taken from each apical chamber; then, each well was replenished with 110 µL fresh HBSS. To each sample, 50 µL internal standard (5 ng/mL disopyramide) in water was added. Samples were prepared for analysis using solid-phase extraction, and the sample concentrations were analyzed via LC-MS/MS. The permeability of the tested compounds was evaluated by calculating the apparent permeability coefficient (Papp, cm/s) and the efflux ratio (ER). The Papp was calculated as follows: [drawing 1] where dQ/dt is the initial permeability rate of the compound across the cells (ng/s), A is the surface area of the cell monolayer (cm^2), and C0 is the initial concentration of the donor side (ng/mL). From the apical-to-basolateral and basolateral-to-apical Papp values, the ER was calculated as follows: [drawing 2]

MDR1-MDCK monolayer = experiment: Bidirectional MDR1-MDCK monolayer permeability; format: in vitro ADME, canine; conditions: for P-gp substrate: ER > 2 indicates drug efflux
Description: as §2

in vivo = conditions: male, C57BL/6J, mouse; for AUC(0-t): AUClast
Description: Plasma samples were obtained via centrifugation at 15,000 rpm for 3 min and stored at − 20℃ until LC-MS/MS analysis.
The brain-to-plasma ratio (Kp) and unbound Kp (Kp,uu) were calculated as follows: [drawing 5] [drawing 6]
Pharmacokinetic parameters were calculated via non-compartmental analysis using Phoenix WinNonlin, ver. 8.3 (Pharsight, Mountain View, CA, USA).

[5] = Brain disposition in mice
Description: Residual blood in the brain was removed from circulation via cardiac perfusion with saline solution.
For both plasma and brain samples, 30 µL each sample was vortexed with 270 µL acetonitrile containing disopyramide as the internal standard for protein precipitation.

[6] = In vitro protein-binding assay using equilibrium dialysis, plasma; format: in vitro ADME, mouse
Description: A rapid equilibrium dialysis device with inserts (cat no. #90,112, Thermo Fisher) was used for the protein-binding assay. […] The samples were incubated for 4 h in a shaking incubator (37℃, 300 rpm). After incubation, 50 µL buffer from the white chamber was added to 50 µL fresh mouse plasma or brain homogenate, and 50 µL dosing solution from the red chamber was added to 50 µL fresh buffer to adjust for matrix effects. To each sample, 200 µL ice-cold acetonitrile with internal standard was added. The samples were centrifuged at 4,000 rpm for 20 min and the supernatants were collected for LC-MS/MS analysis. The unbound fraction of drug (Fu) in plasma and brain tissue was calculated as follows based on previous studies: [drawing 3] [drawing 4]
where Cprotein-free compartment and Cprotein-containing compartment, D, and dh are the concentrations of drug in the buffer chamber and drug solution chamber, dilution factor, and diluted brain homogenate, respectively.
The values were calculated using the measured diluted free fractions and the respective dilution factor.

[7] = 1 h pretreatment, LPS 1 µg/mL 24 h
[8] = C57BL/6J, mouse, brain, po, 10 mg/kg, 4 h after oral 10 mg/kg, read-out: Concentration, Brain
[9] = C57BL/6J, mouse, brain, po, 10 mg/kg, 4 h after oral 10 mg/kg, read-out: Unbound brain concentration
[10] = C57BL/6J, mouse, brain, po, 10 mg/kg, oral 10 mg/kg, converted from ng/g, read-out: Unbound brain concentration
[11] = C57BL/6J, mouse, plasma, po, 10 mg/kg, 4 h after oral 10 mg/kg, read-out: Concentration, Plasma
[12] = C57BL/6J, mouse, plasma, po, 10 mg/kg, 4 h after oral 10 mg/kg, read-out: Unbound plasma concentration

SMILES | Effect on NO levels [1] | Effect on TNF-α levels [2, 7] | Effect on LPS-induced increase in p-NF-κB expression [3] | Papp at 3 µM ([4]; 3 µM) | Papp A→B at 3 µM ([4]; 3 µM) | Papp B→A at 3 µM ([4]; 3 µM) | Papp A→B at 10 µM ([4]; 10 µM) | Papp B→A at 10 µM ([4]; 10 µM) | Papp A→B at 30 µM ([4]; 30 µM) | Papp B→A at 30 µM ([4]; 30 µM) | Papp A→B ([4]; over 3, 10, and 30 µM) | Permeability class according to FDA guidelines (MDR1-MDCK monolayer) | P-gp substrate (MDR1-MDCK monolayer) | bioavailability (in vivo) | AUC(0-inf) (in vivo; iv, 1 mg/kg) | clearance (in vivo; iv, 1 mg/kg) | half-life (in vivo; iv, 1 mg/kg) | AUC(0-t) (in vivo; iv, 1 mg/kg) | AUC(0-inf) (in vivo; po, 10 mg/kg) | Cmax (in vivo; po, 10 mg/kg) | other results
O=C(Nc1c(Cl)cncc1Cl)c1ccc(OC(F)F)c(OCC2CC2)c1 [roflumilast] | dose-dependent decrease | dose-dependent decrease | prevented the LPS-induced increase in p-NF-κB expression in a concentration-dependent manner | > 23 ×10⁻⁶ cm/s | 25.1 ± 1.28 ×10⁻⁶ cm/s | 23.9 ± 3.61 ×10⁻⁶ cm/s | 44.5 ± 2.53 ×10⁻⁶ cm/s | 40.8 ± 6.48 ×10⁻⁶ cm/s | 113 ± 5.7 ×10⁻⁶ cm/s | 72.2 ± 6.32 ×10⁻⁶ cm/s | > 25 ×10⁻⁶ cm/s | high | not P-gp substrates | 2.3% | 5070 ± 1100 ng·h/mL | 3.33 mL/min/kg | 3.74 ± 0.71 h | 4890 ± 940 ng·h/mL | 1290 ± 540 ng·h/mL | 150 ± 70 ng/mL | IC50 ([1]; Mus musculus, BV-2, read-out: IC50 against NO): 312 nM; IC50 [2, 7]: 12.2 nM; IC50 ([2]; converted from nM): 4.9 ng/mL; Tmax (in vivo; po, 10 mg/kg): 2.33 ± 1.53 h; half-life (in vivo; po, 10 mg/kg): 7.13 ± 2.86 h; AUC(0-t) (in vivo; po, 10 mg/kg): 1130 ± 540 ng·h/mL; concentration at 4 h [5, 8]: 18.2 ± 12.9 ng/g; concentration at 4 h [5, 9]: 0.07 ng/g; concentration at 4 h [5, 10]: 0.17 nM; concentration at 4 h [5, 11]: 30.6 ± 14.2 ng/mL; concentration at 4 h [5, 12]: 0.39 ng/mL; fraction unbound at 4 h, 5 µM ([6]; mouse, plasma): 0.0126 ± 0.0058
O=C(O)Cc1ccc(Cc2cc(-c3cccc(Cl)c3)nc(C(F)(F)F)c2)cc1 [zatolmilast] | did not have this effect | did not have this effect | did not | 3.72 to 7.18 ×10⁻⁶ cm/s | 3.72 ± 0.33 ×10⁻⁶ cm/s | 7.18 ± 1.53 ×10⁻⁶ cm/s | 9.59 ± 0.84 ×10⁻⁶ cm/s | 18 ± 1.37 ×10⁻⁶ cm/s | 70.3 ± 9.58 ×10⁻⁶ cm/s | 126 ± 8.39 ×10⁻⁶ cm/s | > 3.7 ×10⁻⁶ cm/s | moderately high | not P-gp substrates | 3.7% | 86900 ± 10900 ng·h/mL | 0.167 mL/min/kg | 6.35 ± 0.62 h | 81900 ng·h/mL | 62000 ± 31800 ng·h/mL | 2530 ± 860 ng/mL | efflux ratio at 3 µM ([4]; 3 µM, read-out: ER): 1.92; efflux ratio at 10 µM ([4]; 10 µM, read-out: ER): 1.89; efflux ratio at 30 µM ([4]; 30 µM, read-out: ER): 1.81; efflux ratio ([4]; over 3, 10, and 30 µM, read-out: Efflux ratios (ERs)): < 1.92; Efflux ratios (ERs) (MDR1-MDCK monolayer; over 3, 10, and 30 µM): < 2.0; Vd (in vivo; iv, 1 mg/kg): 0.07 ± 0.01 L/kg; Tmax (in vivo; po, 10 mg/kg): 2 ± 1.73 h; half-life (in vivo; po, 10 mg/kg): 20.4 ± 6.77 h; AUC(0-t) (in vivo; po, 10 mg/kg): 30300 ± 9640 ng·h/mL; Brain Kp,uu ([5]; 4 h after oral 10 mg/kg, 10 mg/kg): 0.18; Kp at 4 h ([5]; C57BL/6J, mouse, brain and plasma, 4 h after oral 10 mg/kg): 0.33; Kp uu at 4 h ([5]; C57BL/6J, mouse, brain and plasma, po, 10 mg/kg, 4 h after oral 10 mg/kg): < 0.18; concentration at 4 h [5, 8]: 1200 ± 345 ng/g; concentration at 4 h [5, 9]: 1.7 ng/g; concentration at 4 h [5, 10]: 4.2 nM; concentration at 4 h [5, 11]: 3630 ± 890 ng/mL; concentration at 4 h [5, 12]: 9.57 ng/mL; fraction unbound at 4 h, 5 µM ([6]; pooled mouse plasma, 5 µM, mouse plasma, 4 h dialysis, read-out: Fu, Plasma): 0.0026 ± 0.0001
